Results reported in ChEMBL document CHEMBL3217712, “Improved biodistribution, pharmacokinetics and photodynamic efficacy using a new photostable sulfonamide bacteriochlorin” (Medchemcomm, 2012).
Calls of active or inactive are those of the source. The rule behind the calls is not given here.

Assays:
[1] = n-Octanol-water partition coefficient, log P of the compound; format: physicochemical
[2] = Biodistribution in mouse Cloudman S91 tumor bearing DBA2 mouse liver at 10 mg/kg, ip after 2 hrs; format: ADME, organism-based; design: dose 10 mg/kg, route intraperitoneal; conditions: read-out: Drug uptake
[3] = Biodistribution in mouse Cloudman S91 tumor bearing DBA2 mouse lungs at 10 mg/kg, ip after 48 hrs; format: ADME, organism-based; design: dose 10 mg/kg, route intraperitoneal; conditions: lung, read-out: Drug uptake
[4] = Biodistribution in mouse Cloudman S91 tumor bearing DBA2 mouse kidneys at 10 mg/kg, ip after 12 hrs; format: ADME, organism-based; design: dose 10 mg/kg, route intraperitoneal; conditions: kidney, read-out: Drug uptake
[5] = Biodistribution in mouse Cloudman S91 tumor bearing DBA2 mouse blood at 10 mg/kg, ip after 6 hrs; format: ADME, organism-based; design: dose 10 mg/kg, route intraperitoneal; conditions: read-out: Drug uptake
[6] = tested on: S91; assay: Photodynamic efficacy against mouse Cloudman S91 cells allografted in DBA2 mouse assessed as hyperaemia, oedema and progressive darkening of tumor at 10 mg/kg, ip followed by irradiated with 96 J cm'-2 laser light for 20 mins; format: functional, organism-based; design: dose 10 mg/kg
[7] = Biodistribution in mouse Cloudman S91 tumor bearing DBA2 mouse blood at 10 mg/kg, ip after 48 hrs; format: ADME, organism-based; design: dose 10 mg/kg, route intraperitoneal; conditions: read-out: Drug uptake
[8] = Biodistribution in mouse Cloudman S91 tumor bearing DBA2 mouse muscle at 10 mg/kg, ip after 12 hrs; format: ADME, organism-based, Muscle tissue; design: dose 10 mg/kg, route intraperitoneal; conditions: read-out: Drug uptake
[9] = Biodistribution in mouse Cloudman S91 tumor bearing DBA2 mouse intestine at 10 mg/kg, ip after 24 hrs; format: ADME, organism-based; design: dose 10 mg/kg, route intraperitoneal; conditions: read-out: Drug uptake
[10] = Biodistribution in mouse Cloudman S91 tumor bearing DBA2 mouse skin at 10 mg/kg, ip after 24 hrs; format: ADME, organism-based, Zone of skin; design: dose 10 mg/kg, route intraperitoneal; conditions: read-out: Drug uptake
[11] = Biodistribution in mouse Cloudman S91 tumor bearing DBA2 mouse muscle at 10 mg/kg, ip after 48 hrs; format: ADME, organism-based, Muscle tissue; design: dose 10 mg/kg, route intraperitoneal; conditions: read-out: Drug uptake
[12] = Biodistribution in mouse Cloudman S91 tumor bearing DBA2 mouse liver at 10 mg/kg, ip after 72 hrs; format: ADME, organism-based; design: dose 10 mg/kg, route intraperitoneal; conditions: read-out: Drug uptake
[13] = Biodistribution in mouse Cloudman S91 tumor bearing DBA2 mouse heart at 10 mg/kg, ip after 6 hrs; format: ADME, organism-based; design: dose 10 mg/kg, route intraperitoneal; conditions: read-out: Drug uptake
[14] = tested on: Nucleic Acid; assay: Ratio of drug level in tumor to skin in ip dosed human HT29 tumor bearing mouse; format: ADME, organism-based; conditions: in vivo
[15] = Biodistribution in mouse Cloudman S91 tumor bearing DBA2 mouse muscle at 10 mg/kg, ip after 24 hrs; format: ADME, organism-based, Muscle tissue; design: dose 10 mg/kg, route intraperitoneal; conditions: read-out: Drug uptake
[16] = Biodistribution in mouse Cloudman S91 tumor bearing DBA2 mouse skin at 10 mg/kg, ip after 72 hrs; format: ADME, organism-based, Zone of skin; design: dose 10 mg/kg, route intraperitoneal; conditions: read-out: Drug uptake
[17] = Biodistribution in mouse Cloudman S91 tumor bearing DBA2 mouse liver at 10 mg/kg, ip after 12 hrs; format: ADME, organism-based; design: dose 10 mg/kg, route intraperitoneal; conditions: read-out: Drug uptake
[18] = Biodistribution in mouse Cloudman S91 tumor bearing DBA2 mouse kidneys at 10 mg/kg, ip after 2 hrs; format: ADME, organism-based; design: dose 10 mg/kg, route intraperitoneal; conditions: kidney, read-out: Drug uptake
[19] = Biodistribution in mouse Cloudman S91 tumor bearing DBA2 mouse spleen at 10 mg/kg, ip after 2 hrs; format: ADME, organism-based; design: dose 10 mg/kg, route intraperitoneal; conditions: read-out: Drug uptake
[20] = Biodistribution in mouse Cloudman S91 tumor bearing DBA2 mouse kidneys at 10 mg/kg, ip after 6 hrs; format: ADME, organism-based; design: dose 10 mg/kg, route intraperitoneal; conditions: kidney, read-out: Drug uptake
[21] = tested on: S91; assay: Photodynamic efficacy against mouse Cloudman S91 cells allografted in DBA2 mouse assessed as disappearance of tumor at 10 mg/kg, ip followed by irradiated with 96 J cm'-2 laser light for 20 mins measured after 80 days; format: functional, organism-based; design: dose 10 mg/kg
[22] = Biodistribution in mouse Cloudman S91 tumor bearing DBA2 mouse intestine at 10 mg/kg, ip after 72 hrs; format: ADME, organism-based; design: dose 10 mg/kg, route intraperitoneal; conditions: read-out: Drug uptake
[23] = Biodistribution in mouse Cloudman S91 tumor bearing DBA2 mouse spleen at 10 mg/kg, ip after 72 hrs; format: ADME, organism-based; design: dose 10 mg/kg, route intraperitoneal; conditions: read-out: Drug uptake
[24] = Biodistribution in mouse Cloudman S91 tumor bearing DBA2 mouse skin at 10 mg/kg, ip after 6 hrs; format: ADME, organism-based, Zone of skin; design: dose 10 mg/kg, route intraperitoneal; conditions: read-out: Drug uptake
[25] = Biodistribution in mouse Cloudman S91 tumor bearing DBA2 mouse lungs at 10 mg/kg, ip after 12 hrs; format: ADME, organism-based; design: dose 10 mg/kg, route intraperitoneal; conditions: lung, read-out: Drug uptake
[26] = Biodistribution in mouse Cloudman S91 tumor bearing DBA2 mouse tumour at 10 mg/kg, ip after 48 hrs; format: ADME, organism-based, Neoplasm; design: dose 10 mg/kg, route intraperitoneal; conditions: read-out: Drug uptake
[27] = Biodistribution in mouse Cloudman S91 tumor bearing DBA2 mouse liver at 10 mg/kg, ip after 24 hrs; format: ADME, organism-based; design: dose 10 mg/kg, route intraperitoneal; conditions: read-out: Drug uptake
[28] = Biodistribution in mouse Cloudman S91 tumor bearing DBA2 mouse liver at 10 mg/kg, ip after 6 hrs; format: ADME, organism-based; design: dose 10 mg/kg, route intraperitoneal; conditions: read-out: Drug uptake
[29] = Biodistribution in mouse Cloudman S91 tumor bearing DBA2 mouse muscle at 10 mg/kg, ip after 72 hrs; format: ADME, organism-based, Muscle tissue; design: dose 10 mg/kg, route intraperitoneal; conditions: read-out: Drug uptake
[30] = Biodistribution in mouse Cloudman S91 tumor bearing DBA2 mouse blood at 10 mg/kg, ip after 12 hrs; format: ADME, organism-based; design: dose 10 mg/kg, route intraperitoneal; conditions: read-out: Drug uptake
[31] = tested on: Nucleic Acid; assay: Ratio of drug level in tumor to skin in mouse Cloudman S91 tumor bearing DBA2 mouse at 10 mg/kg, ip; format: ADME, organism-based; design: dose 10 mg/kg, route intraperitoneal; conditions: in vivo
[32] = Biodistribution in mouse Cloudman S91 tumor bearing DBA2 mouse spleen at 10 mg/kg, ip after 24 hrs; format: ADME, organism-based; design: dose 10 mg/kg, route intraperitoneal; conditions: read-out: Drug uptake
[33] = Biodistribution in mouse Cloudman S91 tumor bearing DBA2 mouse muscle at 10 mg/kg, ip after 6 hrs; format: ADME, organism-based, Muscle tissue; design: dose 10 mg/kg, route intraperitoneal; conditions: read-out: Drug uptake
[34] = Biodistribution in mouse Cloudman S91 tumor bearing DBA2 mouse liver at 10 mg/kg, ip after 48 hrs; format: ADME, organism-based; design: dose 10 mg/kg, route intraperitoneal; conditions: read-out: Drug uptake
[35] = tested on: S91; assay: Photodynamic efficacy against mouse Cloudman S91 cells allografted in DBA2 mouse assessed as disappearance of tumor at 10 mg/kg, ip followed by irradiated with 96 J cm'-2 laser light for 20 mins; format: functional, organism-based; design: dose 10 mg/kg
[36] = tested on: Nucleic Acid; assay: Ratio of drug level in tumor to muscle in ip dosed human HT29 tumor bearing mouse; format: ADME, organism-based; conditions: in vivo
[37] = Biodistribution in mouse Cloudman S91 tumor bearing DBA2 mouse tumour at 10 mg/kg, ip after 72 hrs; format: ADME, organism-based, Neoplasm; design: dose 10 mg/kg, route intraperitoneal; conditions: read-out: Drug uptake

logP [1]: 1.83
concentration at 2 h [2]: 980 ng/g
concentration at 48 h [3]: 500 ng/g
concentration at 12 h [4]: 300 ng/g
concentration at 6 h [5]: 240 ng/g
concentration at 48 h [7]: 130 ng/g
concentration at 12 h [8]: 120 ng/g
concentration at 24 h [9]: 750 ng/g
concentration at 24 h [10]: 170 ng/g
concentration at 48 h [11]: 70 ng/g
concentration at 72 h [12]: 630 ng/g
concentration at 6 h [13]: 100 ng/g
Ratio [14]: 1
concentration at 24 h [15]: 130 ng/g
concentration at 72 h [16]: 19 ng/g
concentration at 12 h [17]: 4000 ng/g
concentration at 2 h [18]: 100 ng/g
concentration at 2 h [19]: 2300 ng/g
concentration at 6 h [20]: 400 ng/g
concentration at 72 h [22]: 300 ng/g
concentration at 72 h [23]: 3000 ng/g
concentration at 6 h [24]: 70 ng/g
concentration at 12 h [25]: 300 ng/g
concentration at 48 h [26]: 320 ng/g
concentration at 24 h [27]: 2000 ng/g
concentration at 6 h [28]: 4800 ng/g
concentration at 72 h [29]: 15 ng/g
concentration at 12 h [30]: 970 ng/g
Ratio [31]: 6
concentration at 24 h [32]: 10000 ng/g
concentration at 6 h [33]: 50 ng/g
concentration at 48 h [34]: 2400 ng/g
Ratio [36]: 5
concentration at 72 h [37]: 150 ng/g
Structure (SMILES): CCNS(=O)(=O)c1ccc(Cl)c(-c2c3nc(c(-c4c(Cl)ccc(S(=O)(=O)NCC)c4Cl)c4ccc([nH]4)c(-c4c(Cl)ccc(S(=O)(=O)NCC)c4Cl)c4nc(c(-c5c(Cl)ccc(S(=O)(=O)NCC)c5Cl)c5ccc2[nH]5)CC4)CC3)c1Cl
Activity [6]: Active
Activity [21]: inactive
Activity [35]: Active
